Among the data in ChEMBL document CHEMBL1141943, “Synthesis and antitubercular activity of 2-hydroxy-aminoalkyl derivatives of diaryloxy methano phenanthrenes” (2005) are MIC values, retold here.

Molecules are shown by their SMILES. In brackets after ≈: the same amount, converted by molar mass.

In assay [1] the test system is Mycobacterium tuberculosis. The experiment in a line: Antitubercular activity against Mycobacterium tuberculosis H37Rv by agar microdilution technique. The format is functional.
For assay [2], the system named is Mycobacterium tuberculosis. The experiment in a line: Antitubercular activity against Mycobacterium tuberculosis H37Rv by standard BACTEC radiometric growth assay. Format: functional.

Take `COc1ccc(C(c2ccc(OCC(O)CN3CCN(Cc4ccccc4)CC3)cc2)c2cc3ccccc3c3ccccc23)cc1` (stereo unspecified): the lowest concentration to inhibit growth in assay [1] (MIC) was 25 mg/L (≈ 40.1 µM).

On to `CCCCNCC(O)COc1ccc(C(c2ccc(OC)cc2)c2cc3ccccc3c3ccccc23)cc1` (stereo unspecified), for which the MIC in assay [1] and in assay [2] was 6.25 mg/L (≈ 12 µM) in each case.

Turning to `OC(CNC1CCCCC1)COc1ccc(C(c2ccc(OCC(O)CNC3CCCCC3)cc2)c2cc3ccccc3c3ccccc23)cc1` (stereo unspecified), the MIC (commonly the lowest concentration found to suppress growth) in assay [1] stood at 6.25 mg/L (≈ 9.1 µM); in assay [2], 12.5 mg/L (≈ 18.2 µM).

For the molecule `CCN(CC)CC(O)COc1ccc(C(c2ccc(OC)cc2)c2cc3ccccc3c3ccccc23)cc1` (stereo unspecified), the minimum inhibitory concentration (MIC) in assay [1] and in assay [2] was 6.25 mg/L (≈ 12 µM) each time.

For the molecule `COc1ccc(C(c2ccc(OCC(O)CNC3CC3)cc2)c2cc3ccccc3c3ccccc23)cc1` (stereo unspecified), the MIC in assay [1] and in assay [2] was 25 mg/L (≈ 49.6 µM) each time.

In the case of `COc1ccc(C(c2ccc(OCC3CO3)cc2)c2cc3ccccc3c3ccccc23)cc1` (stereo unspecified), in assay [1], 25 mg/L (≈ 56 µM) was the least that counted as inhibitory (MIC).

Regarding `COc1ccc(C(c2ccc(OCC(O)CN3CCCCC3)cc2)c2cc3ccccc3c3ccccc23)cc1` (stereo unspecified), the MIC in assay [1] and in assay [2] was 12.5 mg/L (≈ 23.5 µM) throughout.

In the case of `COc1ccc(C(c2ccc(OCC(O)CN3CCCC3)cc2)c2cc3ccccc3c3ccccc23)cc1` (stereo unspecified), the minimal inhibitory concentration (MIC) in assay [1] and in assay [2] was 12.5 mg/L (≈ 24.1 µM) in each case.

`CN1CCN(CC(O)COc2ccc(C(c3ccc(OCC(O)CN4CCN(C)CC4)cc3)c3cc4ccccc4c4ccccc34)cc2)CC1` (stereo unspecified): the MIC in assay [1] and in assay [2] was 12.5 mg/L (≈ 18.1 µM) throughout.

On to `COc1ccc(C(c2ccc(OCC(O)CN3CCN(C)CC3)cc2)c2cc3ccccc3c3ccccc23)cc1` (stereo unspecified), for which the minimal inhibitory concentration (MIC) in assay [1] and in assay [2] was 12.5 mg/L (≈ 22.9 µM) throughout.

With `COc1ccc(C(c2ccc(OCC(O)CN3CCOCC3)cc2)c2cc3ccccc3c3ccccc23)cc1` (stereo unspecified), the MIC in assay [1] was 25 mg/L (≈ 46.8 µM).

Take `COc1ccc(C(c2ccc(OCC(O)CNC3CCCCC3)cc2)c2cc3ccccc3c3ccccc23)cc1` (stereo unspecified): the figures for the MIC in assay [1] and in assay [2] were 12.5 mg/L (≈ 22.9 µM) and 6.25 mg/L (≈ 11.5 µM), respectively.

For `OC(COc1ccc(C(c2ccc(OCC(O)CN3CCCCC3)cc2)c2cc3ccccc3c3ccccc23)cc1)CN1CCCCC1` (stereo unspecified), the MIC in assay [1] is 6.25 mg/L (≈ 9.49 µM); in assay [2], 12.5 mg/L (≈ 19 µM).

Consider `COc1ccc(C(c2ccc(OCC(O)CNC3CCCCCC3)cc2)c2cc3ccccc3c3ccccc23)cc1` (stereo unspecified), for which the MIC in assay [1] and in assay [2] was 3.12 mg/L (≈ 5.57 µM) in each case.

`OC(COc1ccc(C(c2ccc(OCC(O)CN3CCCC3)cc2)c2cc3ccccc3c3ccccc23)cc1)CN1CCCC1` (stereo unspecified): the minimum inhibitory concentration (MIC) in assay [1] and in assay [2] was 12.5 mg/L (≈ 19.8 µM) throughout.

Regarding `NNC(=O)c1ccncc1` [ISONIAZID], the MIC in assay [1] turned out to be 0.05 mg/L (≈ 0.365 µM); in assay [2] it was 0.025 mg/L (≈ 0.182 µM).

Turning to `CO[C@H]1/C=C/O[C@@]2(C)Oc3c(C)c(O)c4c(O)c(c(/C=N/N5CCN(C)CC5)c(O)c4c3C2=O)NC(=O)/C(C)=C\C=C\[C@H](C)[C@H](O)[C@@H](C)[C@@H](O)[C@@H](C)[C@H](OC(C)=O)[C@@H]1C` [RIFAMPIN], the MIC in assay [1] was determined as 0.1 mg/L (≈ 0.122 µM); in assay [2] it was 0.2 mg/L (≈ 0.243 µM).
